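Grown in 96-well plates, cells were treated for 48 hours with each compound at five concentrations. Insufficient inhibition: endpoint recorded as highest concentration tested. GI50 marks 50% less growth.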 Active and inactive are the calls of the source. No stated cut-off is given here; in the data, active = GI50 up to about 1.1 µM and inactive = higher.
Key:
Assay in all cases: growth of human tumour cells (NCI), 48 h
A549 = system: A549
BT-549 = system: BT-549
DU-145 = system: DU-145
EKVX = system: EKVX
HL-60 = system: HL-60
Hs-578T = system: Hs-578T
KM12 = system: KM12
LOX IMVI = system: LOX IMVI
MCF7 = system: MCF7
MDA-MB-231 = system: MDA-MB-231
MOLT-4 = system: MOLT-4
NCI-H460 = system: NCI-H460
RXF 393 = system: RXF 393
SK-MEL-28 = system: SK-MEL-28
SK-MEL-5 = system: SK-MEL-5
SNB-19 = system: SNB-19
SR = system: SR
T47D = system: T47D
TK-10 = system: TK-10
U-251 = system: U-251

Measured: GI50

CCOC(=O)CCC1(C(=O)O[C@@H]2C[C@H](C)CC[C@H]2C(C)C)CCCCC1=O (stereo not given in full)
inactive: A549 55.3 µM | BT-549 > 100 µM | DU-145 > 100 µM | EKVX 41.3 µM | HL-60 18.2 µM | Hs-578T > 100 µM | KM12 50.4 µM | LOX IMVI > 100 µM | MCF7 58.6 µM | MDA-MB-231 > 100 µM | MOLT-4 29.2 µM | NCI-H460 36.6 µM | RXF 393 55.7 µM | SK-MEL-28 74 µM | SK-MEL-5 31.1 µM | SNB-19 > 100 µM | SR 41.2 µM | T47D 34.8 µM | TK-10 56.4 µM | U-251 63.2 µM

CC[P+]1(c2ccccc2)[C@@H](C)CC[C@@H]1C
inactive: A549 > 100 µM | BT-549 > 100 µM | DU-145 > 100 µM | EKVX > 100 µM | HL-60 > 100 µM | Hs-578T > 100 µM | KM12 > 100 µM | LOX IMVI > 100 µM | MCF7 > 100 µM | MDA-MB-231 > 100 µM | MOLT-4 > 100 µM | NCI-H460 > 100 µM | RXF 393 > 100 µM | SK-MEL-28 > 100 µM | SK-MEL-5 65.2 µM | SNB-19 > 100 µM | SR > 100 µM | T47D > 100 µM | TK-10 > 100 µM | U-251 40.5 µM

COC(=O)C(Cc1ccc2c(c1)CCC2)Cc1ccc2c(c1)CCC2
inactive: A549 41.3 µM | BT-549 27.1 µM | DU-145 > 100 µM | EKVX 44.8 µM | HL-60 23 µM | Hs-578T > 100 µM | KM12 37.3 µM | LOX IMVI 20.8 µM | MCF7 31.5 µM | MDA-MB-231 > 100 µM | MOLT-4 40.3 µM | NCI-H460 53.2 µM | RXF 393 31 µM | SK-MEL-28 94.4 µM | SK-MEL-5 25.9 µM | SNB-19 > 100 µM | SR 57 µM | T47D 20.9 µM | TK-10 > 100 µM | U-251 51.9 µM

CC(=O)O[C@H]1C[C@H]2[C@@H]([C@H](OC(C)=O)C[C@@H]3CC4(CC[C@@]32C)OOC2(CCCCC2)OO4)[C@@H]2CC[C@H]([C@H](C)CCC(=O)O)[C@@]12C
inactive: A549 2.66 µM | BT-549 4.24 µM | DU-145 10.4 µM | EKVX 1.95 µM | HL-60 4.15 µM | Hs-578T 2.42 µM | KM12 3.56 µM | LOX IMVI 3.48 µM | MCF7 4.65 µM | MDA-MB-231 14.1 µM | MOLT-4 9.02 µM | NCI-H460 4.43 µM | RXF 393 13.5 µM | SK-MEL-28 11.4 µM | SK-MEL-5 10.6 µM | SNB-19 6.71 µM | SR 2.44 µM | T47D 7 µM | TK-10 12.4 µM | U-251 4.52 µM

COC(=O)c1cc(NC(=O)Cc2c[nH]c3ccccc23)cn1C
inactive: A549 70.5 µM | BT-549 57.5 µM | DU-145 > 100 µM | EKVX > 100 µM | HL-60 > 100 µM | Hs-578T 33.7 µM | KM12 > 100 µM | LOX IMVI 58.3 µM | MCF7 60.8 µM | MDA-MB-231 27.4 µM | MOLT-4 43.2 µM | NCI-H460 70.5 µM | RXF 393 > 100 µM | SK-MEL-28 42 µM | SK-MEL-5 70.3 µM | SNB-19 70 µM | SR 39.4 µM | T47D > 100 µM | TK-10 87.9 µM | U-251 68.4 µM

COc1ccc(C(C#N)NC23CC4CC(CC(C4)C2)C3)cc1 (stereo not given)
inactive: A549 > 100 µM | BT-549 > 100 µM | DU-145 > 100 µM | EKVX > 100 µM | HL-60 88.5 µM | Hs-578T > 100 µM | KM12 > 100 µM | LOX IMVI > 100 µM | MCF7 > 100 µM | MDA-MB-231 > 100 µM | MOLT-4 > 100 µM | NCI-H460 > 100 µM | RXF 393 > 100 µM | SK-MEL-28 > 100 µM | SK-MEL-5 > 100 µM | SNB-19 > 100 µM | SR > 100 µM | T47D > 100 µM | TK-10 > 100 µM | U-251 > 100 µM

C=C(C)C1CCC2(C)C1CCC1(C)C2CCC2C3(C)C4OC(OC4=O)C(C)(C)C3CCC21C (stereo not given)
inactive: A549 > 100 µM | BT-549 > 100 µM | DU-145 > 100 µM | EKVX > 100 µM | HL-60 47.3 µM | Hs-578T > 100 µM | KM12 > 100 µM | LOX IMVI > 100 µM | MCF7 > 100 µM | MDA-MB-231 > 100 µM | MOLT-4 > 100 µM | NCI-H460 > 100 µM | RXF 393 > 100 µM | SK-MEL-28 > 100 µM | SK-MEL-5 > 100 µM | SNB-19 > 100 µM | SR > 100 µM | T47D 64.6 µM | TK-10 > 100 µM | U-251 > 100 µM

— ChEMBL document CHEMBL1201862, “PubChem BioAssay data set” (2004)
